In patent publication EP0960886B1, “Peptide T and related peptides in the treatment of inflammation, including multiple sclerosis” (priority 1992, dated 1993):
Square brackets hold non-standard residues; d marks the D form. Ends that are not written are not given here. Peptide text beside a SMILES is read from it.

What was measured:
LPS = LPS toxicity and survival in mice bearing Meth A ascites tumours (Example 7); type: in vivo; conditions: 100 µg LPS subcutaneously with 1mg analogue
Description: Mice bearing Meth A ascites tumours were given 100 µg LPS subcutaneously with either bovine serum albumin (BSA) or peptide T analogue (504 or 505, 1mg). The number of animals showing signs of LPS toxicity (diarrhoea, exudate from the eyes and general level of activity) in each group was recorded at 19, 24 and 41 hours after injection. At the completion of the experiment the number of surviving animals was recorded (see Table II below) and the survivors bled for later determination of TNF, IL-1, IL-6 and RNI levels.

human neutrophils [1] = experiment: TNF-induced neutrophil chemiluminescence (lucigenin-dependent); type: cell-based; conditions: 500-1000U/ml TNF
Description: (§1) Neutrophils. Neutrophils were isolated from whole blood from healthy blood donors. Separation was achieved by the rapid-single-step method of centrifugation of whole blood on FICOLL-HYPAQUE™. These were >99% viable and usually >98% pure.
(§2) Peptides and TNF. TNF was a recombinant product produced in E. coli. Peptide T and analogue 505 (D-Ser-Ser-D-Thr-Thr-D-Thr-Thr-Tyr-D-Thr) were resuspended in Hank's Balanced Salt Solution (HBSS).
(§3) To 100µl of 500-1000U/ml of TNF was added 10µl of peptide and after 5 min 100µl of 1x10^7 neutrophils/ml was added. The cells further incubated at 37°C/20 min and then tested for chemiluminescence activity. In some cases an agonist such as fMLP (10^-7M) was added. Chemiluminescence was measured in a luminometer (LKB). The results for Peptide T are presented in Figure 12 as peak rate of CL release. Lucigenin-dependent chemiluminescence was measured: this represents superoxide measurement. In another set of experiments the effects of analogue 505 on the LPS-induced neutrophil chemiluminescence were examined. In this case the LPS was essentially substituted for the TNF. The concentration of LPS was 0.005µg/ml.

human neutrophils [2] = experiment: LPS-induced neutrophil chemiluminescence; type: cell-based; conditions: LPS 0.005µg/ml
Description: as §1, §2, §3

[3] = tested on: mouse foetal hippocampal neurons; conditions: cultures of mouse foetal hippocampal neurons; cited from earlier work
[4] = spinal administration to rats; tail-flick latency and tail-shock induced vocalisation; cited from earlier work

Compound: C[C@H](O)[C@@H](NC(=O)[C@H](Cc1ccc(O)cc1)NC(=O)[C@H](CC(N)=O)NC(=O)[C@H](NC(=O)[C@@H](NC(=O)[C@H](NC(=O)[C@H](CO)NC(=O)[C@@H](C)N)[C@H](C)O)[C@@H](C)O)[C@H](C)O)C(N)=O [analogue 504]
- % mice surviving 41 hours (LPS): 100%
- % mice with diarrhoea at 19 hrs (LPS): 40%
- % mice with exudate at 19 hrs (LPS): 60%

Compound: C[C@H](O)[C@@H](NC(=O)[C@H](Cc1ccc(O)cc1)NC(=O)[C@@H](NC(=O)[C@H](NC(=O)[C@@H](NC(=O)[C@H](NC(=O)[C@H](CO)NC(=O)[C@H](N)CO)[C@H](C)O)[C@@H](C)O)[C@H](C)O)[C@@H](C)O)C(N)=O [analogue 505, D-Ser-Ser-D-Thr-Thr-D-Thr-Thr-Tyr-D-Thr] (H-[dS]S[dT]T[dT]TY[dT]-NH2)
- TNF priming and activation of human neutrophils (human neutrophils [1]): inhibits TNF priming and activation
- % mice surviving 41 hours (LPS): 100%
- % mice with diarrhoea at 19 hrs (LPS): 40%
- % mice with exudate at 19 hrs (LPS): 20%
- LPS activation of human neutrophils (human neutrophils [2]): inhibits LPS activation

Compound: human vasoactive intestinal peptide (HSDAVFTDNYTRLRKQMAVKKYLNSILN; ends and bridges not checked; UniProt P01282 125-152, looked up) [VIP, reference compound]
- gp120-induced neurotoxicity [3]: completely eliminated
- analgesia [4]: produced analgesia
